Paper PMC5218480 (PLoS ONE, 2017)

Test system: MV-4-11 cells
Test: Gene expression microarray analysis (Affymetrix PrimeView) and GSEA
Assay type: cell-based, human
Set-up: RFU PODN (11730768_x_at) / Fold change /veh PODN (11730768_x_at) / RFU LINC00158 (11744669_a_at) / Fold change /veh LINC00158 (11744669_a_at) / RFU DUSP10 (11751237_a_at) / Fold change /veh DUSP10 (11751237_a_at) / RFU ID3 (11757404_x_at) / Fold change /veh ID3 (11757404_x_at) / RFU PLEKHG5 (11737974_s_at) / Fold change /veh PLEKHG5 (11737974_s_at) / RFU LRRC4B (11730491_at) / Fold change /veh LRRC4B (11730491_at) / RFU GIMAP4 (11747438_a_at) / Fold change /veh GIMAP4 (11747438_a_at) / RFU KRT8 (11758183_x_at) / Fold change /veh KRT8 (11758183_x_at) / RFU CNN1 (11734310_a_at) / Fold change /veh CNN1 (11734310_a_at) / RFU VPS37D (11726825_at) / Fold change /veh VPS37D (11726825_at) / RFU C10orf10 (11716522_x_at) / Fold change /veh C10orf10 (11716522_x_at) / RFU KIR2DL2 /// KIR2DL4 /// KIR2DL5A /// KIR2DL5B /// KIR2DS1 /// KIR2DS2 /// KIR2DS3 /// KIR2DS4 /// KIR3DL3 /// KIR3DL3 /// KIR3DS1 (11738374_at) / Fold change /veh KIR2DL2 /// KIR2DL4 /// KIR2DL5A /// KIR2DL5B /// KIR2DS1 /// KIR2DS2 /// KIR2DS3 /// KIR2DS4 /// KIR3DL3 /// KIR3DL3 /// KIR3DS1 (11738374_at) / RFU C1QL1 (11718748_at) / Fold change /veh C1QL1 (11718748_at) / RFU TMPRSS4 (11747572_a_at) / Fold change /veh TMPRSS4 (11747572_a_at) / RFU HAMP (11756126_x_at) / Fold change /veh HAMP (11756126_x_at) / RFU RNFT2 (11725882_a_at) / Fold change /veh RNFT2 (11725882_a_at) / RFU NR4A2 (11747474_a_at) / Fold change /veh NR4A2 (11747474_a_at) / RFU ABCC12 (11746883_a_at) / Fold change /veh ABCC12 (11746883_a_at) / RFU TMEM136 (11760407_x_at) / Fold change /veh TMEM136 (11760407_x_at) / RFU CLDN22 /// WWC2 (11732394_at) / Fold change /veh CLDN22 /// WWC2 (11732394_at) / RFU HLA-DPB1 (11760878_x_at) / Fold change /veh HLA-DPB1 (11760878_x_at) / RFU SPINT1 (11716480_a_at) / Fold change /veh SPINT1 (11716480_a_at) / RFU GAP43 (11754022_s_at) / Fold change /veh GAP43 (11754022_s_at) / RFU A4GNT (11735810_at) / Fold change /veh A4GNT (11735810_at) / RFU PRB3 (11715151_x_at) / Fold change /veh PRB3 (11715151_x_at) / RFU TUBB4B (11761932_at) / Fold change /veh TUBB4B (11761932_at) / RFU CAPN14 (11732068_a_at) / Fold change /veh CAPN14 (11732068_a_at) / RFU TMCC2 (11721928_a_at) / Fold change /veh TMCC2 (11721928_a_at) / RFU IRGQ (11745062_a_at) / Fold change /veh IRGQ (11745062_a_at) / RFU FAM174B (11720279_a_at) / Fold change /veh FAM174B (11720279_a_at) / RFU TMPRSS4 (11748680_a_at) / Fold change /veh TMPRSS4 (11748680_a_at) / RFU FAM212B (11763350_a_at) / Fold change /veh FAM212B (11763350_a_at) / RFU PLEKHG5 (11743358_a_at) / Fold change /veh PLEKHG5 (11743358_a_at) / RFU ZSCAN30 (11745921_a_at) / Fold change /veh ZSCAN30 (11745921_a_at) / RFU CMKLR1 (11741424_a_at) / Fold change /veh CMKLR1 (11741424_a_at) / RFU LOC101060620 /// MAPK8IP1 (11723275_at) / Fold change /veh LOC101060620 /// MAPK8IP1 (11723275_at) / RFU SPTSSB (11747773_x_at) / Fold change /veh SPTSSB (11747773_x_at) / RFU PRSS12 (11739890_at) / Fold change /veh PRSS12 (11739890_at) / RFU BIN1 (11741810_x_at) / Fold change /veh BIN1 (11741810_x_at) / RFU WNT11 (11732464_a_at) / Fold change /veh WNT11 (11732464_a_at) / RFU C10orf10 (11716521_a_at) / Fold change /veh C10orf10 (11716521_a_at) / RFU C5orf56 (11738089_at) / Fold change /veh C5orf56 (11738089_at) / RFU CYB561 (11721691_x_at) / Fold change /veh CYB561 (11721691_x_at) / RFU ANKRD19P (11752326_a_at) / Fold change /veh ANKRD19P (11752326_a_at) / RFU OR2T12 /// OR2T33 /// OR2T8 (11738714_s_at) / Fold change /veh OR2T12 /// OR2T33 /// OR2T8 (11738714_s_at) / RFU VCAN (11748164_a_at) / Fold change /veh VCAN (11748164_a_at) / RFU JSRP1 (11732532_at) / Fold change /veh JSRP1 (11732532_at) / RFU KRTAP10-11 (11738290_x_at) / Fold change /veh KRTAP10-11 (11738290_x_at) / RFU MYO3A (11730013_a_at) / Fold change /veh MYO3A (11730013_a_at) / RFU EBF3 (11725865_a_at) / Fold change /veh EBF3 (11725865_a_at) / RFU CAMK2N1 (11719241_x_at) / Fold change /veh CAMK2N1 (11719241_x_at) / RFU C5orf56 (11738088_a_at) / Fold change /veh C5orf56 (11738088_a_at) / RFU OLFML3 (11715873_a_at) / Fold change /veh OLFML3 (11715873_a_at) / RFU LOC100653217 /// NTM (11731650_a_at) / Fold change /veh LOC100653217 /// NTM (11731650_a_at) / RFU MAPK11 (11762145_a_at) / Fold change /veh MAPK11 (11762145_a_at) / RFU FIZ1 (11724087_x_at) / Fold change /veh FIZ1 (11724087_x_at) / RFU OASL (11726364_x_at) / Fold change /veh OASL (11726364_x_at) / RFU SOX15 (11748057_x_at) / Fold change /veh SOX15 (11748057_x_at) / RFU CD79A (11719716_a_at) / Fold change /veh CD79A (11719716_a_at) / RFU HIST1H1D (11736915_at) / Fold change /veh HIST1H1D (11736915_at) / RFU CASKIN2 (11723855_a_at) / Fold change /veh CASKIN2 (11723855_a_at) / RFU LOC730098 (11760151_x_at) / Fold change /veh LOC730098 (11760151_x_at) / RFU OR4N2 (11742367_at) / Fold change /veh OR4N2 (11742367_at) / RFU PRRT2 (11749266_a_at) / Fold change /veh PRRT2 (11749266_a_at) / RFU SNX32 (11753110_a_at) / Fold change /veh SNX32 (11753110_a_at) / RFU CDHR5 (11726645_a_at) / Fold change /veh CDHR5 (11726645_a_at) / RFU RCAN1 (11760418_a_at) / Fold change /veh RCAN1 (11760418_a_at) / RFU FAM167A (11723789_a_at) / Fold change /veh FAM167A (11723789_a_at) / RFU FAM26E (11764081_at) / Fold change /veh FAM26E (11764081_at) / RFU ISYNA1 (11749810_s_at) / Fold change /veh ISYNA1 (11749810_s_at) / RFU ACY1 (11761880_at) / Fold change /veh ACY1 (11761880_at) / RFU 11764098_at / Fold change /veh 11764098_at / RFU SAMD14 (11745864_x_at) / Fold change /veh SAMD14 (11745864_x_at) / RFU NPB (11741838_a_at) / Fold change /veh NPB (11741838_a_at) / RFU TMPRSS6 (11731388_a_at) / Fold change /veh TMPRSS6 (11731388_a_at) / RFU KRTAP10-2 (11738614_at) / Fold change /veh KRTAP10-2 (11738614_at) / RFU ARHGAP8 /// PRR5-ARHGAP8 (11727945_x_at) / Fold change /veh ARHGAP8 /// PRR5-ARHGAP8 (11727945_x_at) / RFU KRTAP5-7 /// NADSYN1 (11734609_at) / Fold change /veh KRTAP5-7 /// NADSYN1 (11734609_at) / RFU RASL12 (11751679_a_at) / Fold change /veh RASL12 (11751679_a_at) / RFU CDKN2B (11736163_a_at) / Fold change /veh CDKN2B (11736163_a_at) / RFU PRF1 (11729649_at) / Fold change /veh PRF1 (11729649_at) / RFU, ZNF638 /// ZNF638-IT1 / Fold change vs veh, ZNF638 /// ZNF638-IT1 / RFU, PANK3 / Fold change vs veh, PANK3 / RFU, SH3YL1 / Fold change vs veh, SH3YL1 / RFU, ZEB2 / Fold change vs veh, ZEB2 / RFU, NRIP1 / Fold change vs veh, NRIP1 / RFU, PTTG1IP / Fold change vs veh, PTTG1IP / RFU, CAPN2 / Fold change vs veh, CAPN2 / RFU, MED14 / Fold change vs veh, MED14 / RFU, SNORA58 / Fold change vs veh, SNORA58 / RFU, C1orf63 / Fold change vs veh, C1orf63 / RFU, LRRFIP1 / Fold change vs veh, LRRFIP1 / RFU, NDUFAF7 / Fold change vs veh, NDUFAF7 / RFU, SLC12A2 / Fold change vs veh, SLC12A2 / RFU, IBTK / Fold change vs veh, IBTK / RFU, ESF1 / Fold change vs veh, ESF1 / Fold change vs veh, TMEM50B / RFU, TAOK1 / Fold change vs veh, TAOK1 / RFU, ACBD3 / Fold change vs veh, ACBD3 / RFU, TMA16 / Fold change vs veh, TMA16 / RFU, RWDD3 / Fold change vs veh, RWDD3 / RFU, BCAT1 / Fold change vs veh, BCAT1 / RFU, EDEM3 / Fold change vs veh, EDEM3 / RFU, TMEM33 / Fold change vs veh, TMEM33 / RFU, WDR75 / Fold change vs veh, WDR75 / RFU, AHCTF1 / Fold change vs veh, AHCTF1 / RFU, TFRC / Fold change vs veh, TFRC / RFU, ZDHHC17 / Fold change vs veh, ZDHHC17 / RFU, NOM1 / Fold change vs veh, NOM1 / RFU, ARL8B / Fold change vs veh, ARL8B / RFU, ZBTB11 / Fold change vs veh, ZBTB11 / RFU, TAMM41 / Fold change vs veh, TAMM41 / RFU, KIAA1704 /// LOC100996395 / Fold change vs veh, KIAA1704 /// LOC100996395 / RFU, ING1 / Fold change vs veh, ING1 / RFU, TRMT61B / Fold change vs veh, TRMT61B / RFU, FUBP3 / Fold change vs veh, FUBP3 / RFU, TP53 / Fold change vs veh, TP53 / RFU, TNKS2 / Fold change vs veh, TNKS2 / RFU, ZFP14 / Fold change vs veh, ZFP14 / RFU, ACTR2 / Fold change vs veh, ACTR2 / RFU, PPP3R1 / Fold change vs veh, PPP3R1 / RFU, PIK3R1 / Fold change vs veh, PIK3R1 / RFU, HNRNPA1 / Fold change vs veh, HNRNPA1 / RFU, RNF170 / Fold change vs veh, RNF170 / RFU, ZNF28 / Fold change vs veh, ZNF28 / RFU, RNGTT / Fold change vs veh, RNGTT / RFU, OGT / Fold change vs veh, OGT / RFU, BRD1 / Fold change vs veh, BRD1 / RFU, MARS / Fold change vs veh, MARS / RFU, ZNF655 / Fold change vs veh, ZNF655 / RFU, FAHD1 / Fold change vs veh, FAHD1 / RFU, BDP1 / Fold change vs veh, BDP1 / RFU, LRRCC1 / Fold change vs veh, LRRCC1 / RFU, ARID1A / Fold change vs veh, ARID1A / RFU, ZNF146 / Fold change vs veh, ZNF146 / RFU, ZNF330 / Fold change vs veh, ZNF330 / RFU, GPN3 / Fold change vs veh, GPN3 / RFU, C9orf123 / Fold change vs veh, C9orf123 / RFU, N4BP2L2 / Fold change vs veh, N4BP2L2 / RFU, ARFIP1 / Fold change vs veh, ARFIP1 / RFU, FAM179B / Fold change vs veh, FAM179B / RFU, BCL10 / Fold change vs veh, BCL10 / RFU, UHRF1BP1L / Fold change vs veh, UHRF1BP1L / RFU, BET1 / Fold change vs veh, BET1 / RFU, CNOT2 / Fold change vs veh, CNOT2 / RFU, ZNF268 / Fold change vs veh, ZNF268 / Fold change vs veh, ZNF507 / RFU, DGCR2 / Fold change vs veh, DGCR2 / RFU, WDSUB1 / Fold change vs veh, WDSUB1 / Fold change vs veh, HSP90B1 /// MIR3652 / RFU, ADSS / Fold change vs veh, ADSS / RFU, GK / Fold change vs veh, GK / RFU, ZNF148 / Fold change vs veh, ZNF148 / RFU, TAF9 / Fold change vs veh, TAF9 / RFU, SLC1A5 / Fold change vs veh, SLC1A5 / RFU, SLMO2 / Fold change vs veh, SLMO2 / RFU, ABCC4 / Fold change vs veh, ABCC4 / RFU, LOC101060439 /// RAP1B / Fold change vs veh, LOC101060439 /// RAP1B / RFU, RFX7 / Fold change vs veh, RFX7 / RFU, GTPBP10 / Fold change vs veh, GTPBP10 / RFU, CNEP1R1 / Fold change vs veh, CNEP1R1 / RFU, BIVM-ERCC5 /// ERCC5 / Fold change vs veh, BIVM-ERCC5 /// ERCC5 / RFU, ILF3 / Fold change vs veh, ILF3 / RFU 11762660_at / Fold change /veh 11762660_at / RFU VCAN (11757783_s_at) / Fold change /veh VCAN (11757783_s_at) / RFU DDX43 (11728927_at) / Fold change /veh DDX43 (11728927_at) / RFU KRT8 (11758188_x_at) / Fold change /veh KRT8 (11758188_x_at) / RFU NKD1 (11759106_at) / Fold change /veh NKD1 (11759106_at) / RFU SRD5A1 (11742802_a_at) / Fold change /veh SRD5A1 (11742802_a_at) / RFU TPSAB1 /// TPSB2 (11721975_s_at) / Fold change /veh TPSAB1 /// TPSB2 (11721975_s_at) / RFU GSTM3 (11746129_a_at) / Fold change /veh GSTM3 (11746129_a_at) / RFU IL23R (11737362_x_at) / Fold change /veh IL23R (11737362_x_at) / RFU TMEM51 (11727254_a_at) / Fold change /veh TMEM51 (11727254_a_at) / RFU PIWIL2 (11732686_x_at) / Fold change /veh PIWIL2 (11732686_x_at) / RFU ORM1 (11744905_x_at) / Fold change /veh ORM1 (11744905_x_at) / RFU CCDC152 (11743942_at) / Fold change /veh CCDC152 (11743942_at) / RFU ECM1 (11717891_a_at) / Fold change /veh ECM1 (11717891_a_at) / RFU IL23R (11748794_a_at) / Fold change /veh IL23R (11748794_a_at) / RFU TNFAIP8L3 (11732012_x_at) / Fold change /veh TNFAIP8L3 (11732012_x_at) / RFU MBOAT4 (11741988_at) / Fold change /veh MBOAT4 (11741988_at) / RFU 11764193_at / Fold change /veh 11764193_at / RFU TMEM53 (11763286_at) / Fold change /veh TMEM53 (11763286_at) / RFU MAGEB2 (11727129_at) / Fold change /veh MAGEB2 (11727129_at) / RFU TMEM200A (11744735_a_at) / Fold change /veh TMEM200A (11744735_a_at) / RFU CCDC152 (11751479_a_at) / Fold change /veh CCDC152 (11751479_a_at) / RFU FAM211A (11726209_a_at) / Fold change /veh FAM211A (11726209_a_at) / RFU RGS16 (11746705_a_at) / Fold change /veh RGS16 (11746705_a_at) / RFU VCAN (11755009_s_at) / Fold change /veh VCAN (11755009_s_at) / RFU RHOB (11743442_s_at) / Fold change /veh RHOB (11743442_s_at) / RFU RGS16 (11720943_a_at) / Fold change /veh RGS16 (11720943_a_at) / RFU RGS16 (11720944_at) / Fold change /veh RGS16 (11720944_at) / RFU, VPS4B / Fold change vs veh, VPS4B / RFU, CREB1 / Fold change vs veh, CREB1 / RFU, DNAJC13 / Fold change vs veh, DNAJC13 / RFU, GNAQ / Fold change vs veh, GNAQ / RFU, CDK5R1 / Fold change vs veh, CDK5R1 / RFU, ZRANB3 / Fold change vs veh, ZRANB3 / RFU, CUL4A / Fold change vs veh, CUL4A / RFU, CCNY / Fold change vs veh, CCNY / RFU, UFL1 / Fold change vs veh, UFL1 / RFU, COG3 / Fold change vs veh, COG3 / RFU, DIAPH2 / Fold change vs veh, DIAPH2 / RFU, SKA2 / Fold change vs veh, SKA2 / RFU, AFF3 / Fold change vs veh, AFF3 / RFU, LMF1 / Fold change vs veh, LMF1 / RFU, IPO11 / Fold change vs veh, IPO11 / RFU, DFFB / Fold change vs veh, DFFB / RFU, FOXP1 / Fold change vs veh, FOXP1 / RFU, CARD8 / Fold change vs veh, CARD8 / RFU, STRN3 / Fold change vs veh, STRN3 / RFU, ADK / Fold change vs veh, ADK / RFU, RASSF2 / Fold change vs veh, RASSF2 / RFU, WIPF1 / Fold change vs veh, WIPF1 / RFU, LARP1B / Fold change vs veh, LARP1B / RFU, RASA1 / Fold change vs veh, RASA1 / RFU, RB1 / Fold change vs veh, RB1 / RFU, PPFIA1 / Fold change vs veh, PPFIA1 / RFU, MAT2A / Fold change vs veh, MAT2A / RFU, CCT5 / Fold change vs veh, CCT5 / RFU, WDR92 / Fold change vs veh, WDR92 / RFU, CUX1 / Fold change vs veh, CUX1 / RFU, TTC7A / Fold change vs veh, TTC7A / RFU, TMEM135 / Fold change vs veh, TMEM135 / RFU, DEPTOR / Fold change vs veh, DEPTOR / RFU, CPM / Fold change vs veh, CPM / RFU, DNAJB6 / Fold change vs veh, DNAJB6 / RFU, CACNA2D3 / Fold change vs veh, CACNA2D3 / RFU, DTX4 / Fold change vs veh, DTX4 / RFU, TFCP2 / Fold change vs veh, TFCP2 / RFU, GMCL1 /// GMCL1P1 / Fold change vs veh, GMCL1 /// GMCL1P1 / RFU, AEBP2 / Fold change vs veh, AEBP2 / RFU, SNHG1 /// SNORD22 /// SNORD25 /// SNORD26 /// SNORD27 /// SNORD28 /// SNORD29 /// SNORD31 / Fold change vs veh, SNHG1 /// SNORD22 /// SNORD25 /// SNORD26 /// SNORD27 /// SNORD28 /// SNORD29 /// SNORD31 / Fold change (Aza/veh), C12orf56 (ProbeSet 11735607_a_at) / Fold change (ACY-1035/veh), C12orf56 (ProbeSet 11735607_a_at) / Fold change (Aza/veh), FGFR1OP (ProbeSet 11751329_s_at) / Fold change (ACY-1035/veh), FGFR1OP (ProbeSet 11751329_s_at) / Fold change (Aza/veh), VPS36 (ProbeSet 11739960_a_at) / Fold change (ACY-1035/veh), VPS36 (ProbeSet 11739960_a_at) / RFU SYPL1 (11715823_x_at) / Fold change /veh SYPL1 (11715823_x_at) / RFU IGFBP7 (11715501_s_at) / Fold change /veh IGFBP7 (11715501_s_at) / RFU REEP3 (11722064_at) / Fold change /veh REEP3 (11722064_at) / RFU IGLL1 (11728026_x_at) / Fold change /veh IGLL1 (11728026_x_at): dose or concentration left out as unconfirmed
Conditions: ProbeSet 11731583_a_at; LIST D

With `Nc1ncn([C@@H]2O[C@H](CO)[C@@H](O)[C@H]2O)c(=O)n1` [azacitidine] the “RFU, LARP1B” value was 75.03 RFU.
